Consider eight compounds from PubChem BioAssay (NCI).

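Following 48 hours of exposure in 96-well plates, responses at five concentrations were used to interpolate endpoints linearly. GI50 = concentration required for 50% inhibition of growth. TGI: concentration producing complete growth inhibition.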

Some test systems named below: ACHN renal; COLO 205 colon; HCT-116 colon; NCI-H23 lung; NCI/ADR-RES ovarian; SF-268 CNS; SF-539 CNS; SK-MEL-2 melanoma; SK-MEL-5 melanoma; UACC-62 melanoma.
What all share (assay): NCI anticancer screen, dose series, 48 h

On to `CC(C)(C)[Si](C)(C)OC1[C@@H](COC(=O)NC(=O)CCl)O[C@@H](n2cnc3c(N)ncnc32)[C@H]1O[Si](C)(C)C(C)(C)C` (stereo not given in full), for which the GI50 in the test on ACHN renal was 1380 nM; in the test on COLO 205 colon, 1900 nM; in the test with HCT-116 colon it was 1530 nM; in the test with NCI-H23 lung, 1020 nM; in the test with NCI/ADR-RES ovarian it was 5440 nM; in the test with SF-268 CNS it was 1930 nM. Besides, the GI50 in the test with SF-539 CNS was 6970 nM; in the test on SK-MEL-2 melanoma, 6720 nM; with SK-MEL-5 melanoma, 1820 nM; with UACC-62 melanoma it was 6.14 µM. Further, the TGI with ACHN renal is 3.45 µM; in the test with COLO 205 colon it was 4.79 µM; with HCT-116 colon, 5.15 µM; in the test on NCI-H23 lung, 2.32 µM; in the test with NCI/ADR-RES ovarian, 12.2 µM; in the test with SF-268 CNS it was 5.23 µM. Besides, the TGI with SF-539 CNS came out at 13.6 µM; in the test with SK-MEL-2 melanoma, 13.8 µM; in the test with SK-MEL-5 melanoma, 5.02 µM; in the test on UACC-62 melanoma, 12.7 µM.

Turning to `COc1ccc2c(c1)C(=O)c1c-2n(CCCN(C)C)c(=O)c2cc([N+](=O)[O-])ccc12`, the GI50 in the test on ACHN renal is less than 10 nM; with COLO 205 colon, 48.3 nM; in the test on HCT-116 colon, less than 10 nM; with NCI-H23 lung, less than 10 nM; with NCI/ADR-RES ovarian, less than 10 nM; in the test with SF-268 CNS, less than 10 nM. In addition, the GI50 is less than 10 nM in the test on SF-539 CNS, 545 nM in the test on SK-MEL-2 melanoma, less than 10 nM in the test with SK-MEL-5 melanoma and less than 0.01 µM in the test on UACC-62 melanoma. Besides, the TGI with ACHN renal turned out to be 0.103 µM; with COLO 205 colon, 12.9 µM; with HCT-116 colon, 0.21 µM; in the test on NCI-H23 lung it was 0.0849 µM; with NCI/ADR-RES ovarian, 0.188 µM; with SF-268 CNS, 2.29 µM. Also, the TGI in the test with SF-539 CNS was less than 0.01 µM; with SK-MEL-2 melanoma it was 7.17 µM; with SK-MEL-5 melanoma, less than 0.012 µM; in the test with UACC-62 melanoma, less than 0.01 µM.

Turning to `CCC(=O)Nc1nnc(Cc2ccc(OC)c(OC)c2)s1`, the GI50 in the test with ACHN renal, with COLO 205 colon, with HCT-116 colon, with NCI-H23 lung, with NCI/ADR-RES ovarian and with SF-268 CNS was greater than 100000 nM throughout. The GI50 in the test on SF-539 CNS is greater than 100000 nM; in the test on SK-MEL-2 melanoma it was greater than 100000 nM; in the test with SK-MEL-5 melanoma, greater than 100000 nM; in the test with UACC-62 melanoma it was greater than 100 µM. Also, the TGI in the test with ACHN renal, in the test on COLO 205 colon, with HCT-116 colon, in the test on NCI-H23 lung, in the test with NCI/ADR-RES ovarian and in the test with SF-268 CNS was greater than 100 µM throughout. In addition, the TGI in the test on SF-539 CNS, in the test with SK-MEL-2 melanoma, with SK-MEL-5 melanoma and with UACC-62 melanoma was greater than 100 µM in each case.

For the compound `COc1cc(-c2ccc[nH]2)[nH]c1/C=C1\N=C(C)C(CC(=O)OCC(C)(C)C)=C1C`, the GI50 with ACHN renal was 287 nM; with COLO 205 colon, 206 nM; with HCT-116 colon it was 181 nM; in the test with NCI-H23 lung, 441 nM; in the test on NCI/ADR-RES ovarian it was 357 nM; with SF-268 CNS, 288 nM. In addition, the GI50 in the test with SF-539 CNS was 357 nM; in the test on SK-MEL-2 melanoma it was 157 nM; with SK-MEL-5 melanoma it was 137 nM; with UACC-62 melanoma, 0.211 µM. Also, the TGI was determined as 0.965 µM with ACHN renal; 1.22 µM in the test on COLO 205 colon; 1.15 µM in the test with HCT-116 colon; 2.22 µM with NCI-H23 lung; 1.46 µM in the test on NCI/ADR-RES ovarian; 1.84 µM in the test with SF-268 CNS. Also, the TGI amounted to 1.6 µM with SF-539 CNS, 0.415 µM in the test with SK-MEL-2 melanoma, 0.279 µM with SK-MEL-5 melanoma and 0.555 µM in the test on UACC-62 melanoma.

Consider `COc1ccc(/C=C/c2ccnc3ccccc23)cc1OC`, for which the TGI is greater than 100 µM in the test with ACHN renal; 27.1 µM in the test on COLO 205 colon; 25.1 µM with HCT-116 colon; 45.5 µM with NCI-H23 lung; 40 µM in the test with NCI/ADR-RES ovarian; 27.8 µM in the test with SF-268 CNS. Besides, the TGI in the test on SF-539 CNS was determined as 30 µM; in the test on SK-MEL-2 melanoma, 39 µM; in the test on SK-MEL-5 melanoma, 28 µM; in the test with UACC-62 melanoma it was 29.4 µM.

For `COC(=O)CC1=C(C)/C(=C/c2[nH]c(-c3ccc[nH]3)cc2OC)N=C1C`, the GI50 with ACHN renal was 247 nM; in the test with COLO 205 colon, 123 nM; with HCT-116 colon it was 81.9 nM; in the test with NCI-H23 lung, 325 nM; with NCI/ADR-RES ovarian, 324 nM; in the test with SF-268 CNS, 388 nM. The GI50 was 331 nM in the test on SF-539 CNS, 149 nM with SK-MEL-2 melanoma, 46.1 nM in the test on SK-MEL-5 melanoma and 0.216 µM in the test with UACC-62 melanoma. Moreover, the TGI in the test with ACHN renal is 1.29 µM; with COLO 205 colon, 0.814 µM; with HCT-116 colon, 1.16 µM; in the test with NCI-H23 lung it was 3.09 µM; in the test on NCI/ADR-RES ovarian, 2.34 µM; in the test with SF-268 CNS, 10.9 µM. Also, the TGI in the test on SF-539 CNS came to 2.27 µM; with SK-MEL-2 melanoma it was 0.354 µM; in the test on SK-MEL-5 melanoma it was 0.107 µM; with UACC-62 melanoma, 0.56 µM.

Take `Cc1ccc(-c2nc3sc(C)cn3c2/C=C2\C(=O)Nc3ccc(Cl)cc32)cc1`: the GI50 in the test with ACHN renal was 4270 nM; in the test with COLO 205 colon it was 31000 nM; in the test with HCT-116 colon, 12200 nM; with NCI-H23 lung it was 12400 nM; in the test on NCI/ADR-RES ovarian it was 15700 nM; in the test with SF-268 CNS, 17800 nM. The GI50 in the test with SF-539 CNS was 4510 nM; in the test on SK-MEL-2 melanoma, 12100 nM; in the test with SK-MEL-5 melanoma it was 15500 nM; in the test on UACC-62 melanoma it was 13.3 µM. Besides, the TGI is 16 µM in the test with ACHN renal; greater than 100 µM in the test on COLO 205 colon; 24.7 µM in the test with HCT-116 colon; 26 µM with NCI-H23 lung; 34.2 µM in the test on NCI/ADR-RES ovarian; 35.5 µM with SF-268 CNS. Besides, the TGI with SF-539 CNS was 17.3 µM; with SK-MEL-2 melanoma, 28.6 µM; with SK-MEL-5 melanoma it was 30.4 µM; in the test on UACC-62 melanoma it was 27.7 µM.

As to `C=CCSC(C)=O`, the TGI with ACHN renal, in the test on COLO 205 colon, in the test on HCT-116 colon, in the test with NCI-H23 lung, in the test with NCI/ADR-RES ovarian and in the test on SF-268 CNS was greater than 100 µM throughout. Besides, the TGI in the test with SF-539 CNS, with SK-MEL-2 melanoma, in the test on SK-MEL-5 melanoma and in the test with UACC-62 melanoma was greater than 100 µM throughout.
